Converted amounts (≈) assume the structure as drawn. Square brackets hold non-standard residues; d marks the D form. Ends that are not written are not given here. Peptide text beside a SMILES is read from it. ξ: configuration not given here. ξαMeGly(pent-4-enyl) = C=CCCCC(C)(N)C(=O)O
What was measured:
S. aureus = assay: Resistance development assay, sequential passaging; type: cell-based, Staphylococcus aureus; conditions: serial passage at sub-MIC
Experimental: (§1) Serial passage and MIC determination were used to explore whether the bacteria developed drug resistance. On the first day, the MICs of the peptides were determined as described above. The next day, the bacterial suspension of sub-MIC concentration was cultivated to the mid-log phase. The MICs of the peptides were detected again, and this process was repeated for 20 days. The MICs of the antibiotics, including amoxicillin (AML), ceftazidime (CAZ) and imipenem, were also determined as controls.

MRSA = tested on: MRSA; design: method as in PMID 32590058; conditions: cited from earlier work
P. aeruginosa = assay: Resistance development assay, sequential passaging; type: cell-based, Pseudomonas aeruginosa; conditions: serial passage at sub-MIC, 20 passages
Experimental: as §1

E. coli = assay: Resistance development assay, sequential passaging; type: cell-based; conditions: serial passage at sub-MIC, 20 passages
Experimental: as §1

E. coli ATCC 25922 = type: cell-based; conditions: ATCC 25922, 18 h
Experimental: (§2) The minimum inhibitory concentration (MIC) of the Feleucin-K3 analogs was tested by the broth microdilution method. Sensitive bacteria and drug-resistant bacteria were diluted to 1 × 10^6 CFU/mL, according to the McFarland standards. Bacterial suspension and peptide solutions (8–128 μg/mL) were incubated at 37 °C for 18 h. The minimum concentration without obvious bacterial growth was the MIC of the peptides. The stability of the analogs in a physiological salt environment was also investigated. In brief, salt powder (450-mM NaCl) was dissolved in deionized water, and the following investigational steps were the same as those described before. The above steps were repeated several times, until the same value was obtained three times.

A. baumannii 9234 = type: cell-based, Acinetobacter baumannii; conditions: 9234, 18 h
Experimental: as §2

A. baumannii 91869 = type: cell-based, Acinetobacter baumannii; conditions: 91869, 18 h
Experimental: as §2

A. baumannii 91199 = type: cell-based, Acinetobacter baumannii; conditions: 91199, 18 h
Experimental: as §2

A. baumannii 822144 = type: cell-based, Acinetobacter baumannii; conditions: 822144, 18 h
Experimental: as §2

A. baumannii 5444 = type: cell-based, Acinetobacter baumannii; conditions: 5444, 18 h
Experimental: as §2

A. baumannii 8309 = type: cell-based, Acinetobacter baumannii; conditions: 8309, 18 h
Experimental: as §2

A. baumannii 51243 = type: cell-based, Acinetobacter baumannii; conditions: 51243, 18 h
Experimental: as §2

A. baumannii 9840 = type: cell-based, Acinetobacter baumannii; conditions: 9840, 18 h
Experimental: as §2

A. baumannii 9336 = type: cell-based, Acinetobacter baumannii; conditions: 9336, 18 h
Experimental: as §2

A. baumannii 91810 = type: cell-based, Acinetobacter baumannii; conditions: 91810, 18 h
Experimental: as §2

A. baumannii 9828 = type: cell-based, Acinetobacter baumannii; conditions: 9828, 18 h
Experimental: as §2

A. baumannii 9331 = type: cell-based, Acinetobacter baumannii; conditions: 9331, 18 h
Experimental: as §2

A. baumannii 91152 = type: cell-based, Acinetobacter baumannii; conditions: 91152, 18 h
Experimental: as §2

A. baumannii 92359 = type: cell-based, Acinetobacter baumannii; conditions: 92359, 18 h
Experimental: as §2

A. baumannii 91105 = type: cell-based, Acinetobacter baumannii; conditions: 91105, 18 h
Experimental: as §2

A. baumannii 9236 = type: cell-based, Acinetobacter baumannii; conditions: 9236, 18 h
Experimental: as §2

A. baumannii 9896 = type: cell-based, Acinetobacter baumannii; conditions: 9896, 18 h
Experimental: as §2

A. baumannii 97830 = type: cell-based, Acinetobacter baumannii; conditions: 97830, 18 h
Experimental: as §2

A. baumannii 91944 = type: cell-based, Acinetobacter baumannii; conditions: 91944, 18 h
Experimental: as §2

A. baumannii ATCC 19606 = type: cell-based, Acinetobacter baumannii; conditions: ATCC 19606, 18 h
Experimental: as §2

A. baumannii 98110 = type: cell-based, Acinetobacter baumannii; conditions: 98110, 18 h
Experimental: as §2

S. aureus 794 = type: cell-based, Staphylococcus aureus; conditions: 794, 18 h
Experimental: as §2

MRSA 48 = type: cell-based, Staphylococcus aureus; conditions: 48, 18 h
Experimental: as §2

MRSA 113 = type: cell-based, Staphylococcus aureus; conditions: 113, 18 h
Experimental: as §2

MRSA 51 = type: cell-based, Staphylococcus aureus; conditions: 51, 18 h
Experimental: as §2

MRSA 936 = type: cell-based, Staphylococcus aureus; conditions: 936, 18 h
Experimental: as §2

MRSA 74 = type: cell-based, Staphylococcus aureus; conditions: 74, 18 h
Experimental: as §2

MRSA ATCC 33591 = type: cell-based, Staphylococcus aureus; conditions: ATCC 33591, 18 h
Experimental: as §2

S. aureus ATCC 25923 = type: cell-based, Staphylococcus aureus; conditions: ATCC 25923, 18 h
Experimental: as §2

S. aureus 725 = type: cell-based, Staphylococcus aureus; conditions: 725, 18 h
Experimental: as §2

MRSA 75 = type: cell-based, Staphylococcus aureus; conditions: 75, 18 h
Experimental: as §2

MRSA 52 = type: cell-based, Staphylococcus aureus; conditions: 52, 18 h
Experimental: as §2

MRSA 54 = type: cell-based, Staphylococcus aureus; conditions: 54, 18 h
Experimental: as §2

MRSA 71 = type: cell-based, Staphylococcus aureus; conditions: 71, 18 h
Experimental: as §2

MRSA 23 = type: cell-based, Staphylococcus aureus; conditions: 23, 18 h
Experimental: as §2

P. aeruginosa ATCC 27853 = type: cell-based, Pseudomonas aeruginosa; conditions: ATCC 27853, 18 h
Experimental: as §2

[1] = tested on: multidrug-resistant A. baumannii; design: method as in PMID 32590058; conditions: previous studies; cited from earlier work
A. baumannii = assay: Resistance development assay, sequential passaging; type: cell-based, Acinetobacter baumannii; conditions: serial passage at sub-MIC, 20 passages
Experimental: as §1

mouse RBCs = conditions: cited from earlier work
Excerpt: The hemolysis rates of K70 were less than 1%, even at the maximum c ...

| Compound | MIC, A. baumannii 9234 (A. baumannii 9234) [µg/mL] | MIC, A. baumannii 91869 (A. baumannii 91869) [µg/mL] | MIC, A. baumannii 91199 (A. baumannii 91199) [µg/mL] | MIC, A. baumannii 822144 (A. baumannii 822144) [µg/mL] | MIC, A. baumannii 5444 (A. baumannii 5444) [µg/mL] | MIC, A. baumannii 8309 (A. baumannii 8309) [µg/mL] | MIC, A. baumannii 51243 (A. baumannii 51243) [µg/mL] | MIC, A. baumannii 9840 (A. baumannii 9840) [µg/mL] | MIC, A. baumannii 9336 (A. baumannii 9336) [µg/mL] | MIC, A. baumannii 91810 (A. baumannii 91810) [µg/mL] | MIC, A. baumannii 9828 (A. baumannii 9828) [µg/mL] | MIC, A. baumannii 9331 (A. baumannii 9331) [µg/mL] | MIC, A. baumannii 91152 (A. baumannii 91152) [µg/mL] | MIC, A. baumannii 92359 (A. baumannii 92359) [µg/mL] | MIC, A. baumannii 91105 (A. baumannii 91105) [µg/mL] | MIC, A. baumannii 9236 (A. baumannii 9236) [µg/mL] | MIC, A. baumannii 9896 (A. baumannii 9896) [µg/mL] | MIC, A. baumannii 97830 (A. baumannii 97830) [µg/mL] | MIC, A. baumannii 91944 (A. baumannii 91944) [µg/mL] | MIC, A. baumannii 98110 (A. baumannii 98110) [µg/mL] | also measured |
| --- | --- | --- | --- | --- | --- | --- | --- | --- | --- | --- | --- | --- | --- | --- | --- | --- | --- | --- | --- | --- | --- |
| CC1(C)S[C@@H]2[C@H](NC(=O)[C@H](N)c3ccc(O)cc3)C(=O)N2[C@H]1C(=O)O [AML, amoxicillin] |  |  |  |  |  |  |  |  |  |  |  |  |  |  |  |  |  |  |  |  | maximum fold increase of MIC, S. aureus (S. aureus; 20 passages): ≤ 1024 fold; passage at which resistant mutants were produced (S. aureus; strain taken as S. aureus): 5 passage; MIC against MRSA (MRSA): up to 128 µg/mL |
| CC(C)(O/N=C(\C(=O)N[C@@H]1C(=O)N2C(C(=O)[O-])=C(C[n+]3ccccc3)CS[C@H]12)c1csc(N)n1)C(=O)O [CAZ, ceftazidime] |  |  |  |  |  |  |  |  |  |  |  |  |  |  |  |  |  |  |  |  | fold increase of MIC, P. aeruginosa (P. aeruginosa): 32 fold; fold increase of MIC, E. coli (E. coli): 16 fold |
| C=CCCCC(C)(NC(=O)[C@H](CC(C)C)NC(=O)[C@H](CC(C)C)NC(=O)[C@H](CCCCN)NC(=O)[C@H](CC(C)C)NC(=O)[C@@H](N)Cc1ccccc1)C(=O)N[C@@H](CCCCN)C(=O)N[C@@H](CC(C)C)C(=O)N[C@@H](CC(C)C)C(N)=O (stereo partly drawn) [Feleucin-K71] (H-FLKLL[ξαMeGly(pent-4-enyl)]KLL-NH2) | 8 (≈ 7.11 µM) | 8 (≈ 7.11 µM) | 16 (≈ 14.2 µM) | 16 (≈ 14.2 µM) | 8 (≈ 7.11 µM) | 8 (≈ 7.11 µM) | 32 (≈ 28.4 µM) | 8 (≈ 7.11 µM) | 8 (≈ 7.11 µM) | 16 (≈ 14.2 µM) | 16 (≈ 14.2 µM) | 64 (≈ 56.9 µM) | 16 (≈ 14.2 µM) | 16 (≈ 14.2 µM) | 8 (≈ 7.11 µM) | 16 (≈ 14.2 µM) | 8 (≈ 7.11 µM) | 32 (≈ 28.4 µM) | 16 (≈ 14.2 µM) | 16 (≈ 14.2 µM) | MIC, E. coli ATCC 25922 (E. coli ATCC 25922): 16 µg/mL (≈ 14.2 µM); MIC, A. baumannii ATCC 19606 (A. baumannii ATCC 19606): 4 µg/mL (≈ 3.55 µM); MIC, S. aureus 794 (S. aureus 794): 16 µg/mL (≈ 14.2 µM); MIC, MRSA 48 (MRSA 48): 4 µg/mL (≈ 3.55 µM); MIC, MRSA 113 (MRSA 113): 4 µg/mL (≈ 3.55 µM); MIC, MRSA 51 (MRSA 51): 4 µg/mL (≈ 3.55 µM); MIC, MRSA 936 (MRSA 936): 4 µg/mL (≈ 3.55 µM); MIC, MRSA 74 (MRSA 74): 4 µg/mL (≈ 3.55 µM); MIC, MRSA ATCC 33591 (MRSA ATCC 33591): 4 µg/mL (≈ 3.55 µM); MIC, S. aureus ATCC 25923 (S. aureus ATCC 25923): 4 µg/mL (≈ 3.55 µM); MIC, S. aureus 725 (S. aureus 725): 4 µg/mL (≈ 3.55 µM); MIC, MRSA 75 (MRSA 75): 4 µg/mL (≈ 3.55 µM); MIC, MRSA 52 (MRSA 52): 4 µg/mL (≈ 3.55 µM); MIC, MRSA 54 (MRSA 54): 4 µg/mL (≈ 3.55 µM); MIC, MRSA 71 (MRSA 71): 4 µg/mL (≈ 3.55 µM); MIC, MRSA 23 (MRSA 23): 4 µg/mL (≈ 3.55 µM); MIC, P. aeruginosa ATCC 27853 (P. aeruginosa ATCC 27853): 8 µg/mL (≈ 7.11 µM) |
| C[C@@H](O)[C@H]1C(=O)N2C(C(=O)O)=C(SCCN=CN)C[C@H]12 [imipenem] |  |  |  |  |  |  |  |  |  |  |  |  |  |  |  |  |  |  |  |  | MIC against multidrug-resistant A. baumannii [1]: ≤ 64 µg/mL; maximum fold increase of MIC, A. baumannii (A. baumannii): ≤ 16 fold |
| FLKLLKKLL-NH2 [Feleucin-K3] | 8 | 8 | 8 | 8 | 8 | 8 | 8 | 8 | 8 | 8 | 16 | 16 | 8 | 8 | 8 | 16 | 8 | 8 | 8 | 8 | hemolytic rate at 256 µg/mL (mouse RBCs): more than 40%; MIC, S. aureus 794 (S. aureus 794): 16 µg/mL; MIC, MRSA 48 (MRSA 48): 8 µg/mL; MIC, MRSA 113 (MRSA 113): 8 µg/mL; MIC, MRSA 51 (MRSA 51): 8 µg/mL; MIC, MRSA 936 (MRSA 936): 8 µg/mL; MIC, MRSA 74 (MRSA 74): 8 µg/mL; MIC, MRSA ATCC 33591 (MRSA ATCC 33591): 8 µg/mL; MIC, S. aureus 725 (S. aureus 725): 8 µg/mL; MIC, MRSA 75 (MRSA 75): 8 µg/mL; MIC, MRSA 52 (MRSA 52): 8 µg/mL; MIC, MRSA 54 (MRSA 54): 8 µg/mL; MIC, MRSA 71 (MRSA 71): 8 µg/mL; MIC, MRSA 23 (MRSA 23): 8 µg/mL |
